Like-named read-outs stand apart in the source and are kept apart here.
Experiments:
Ceriodaphnia dubia = conditions: in vivo
[1] = Solubility of ILs in base oils, by centrifuging the oil-additive blends; conditions: centrifuged 13,000 rpm 5 min

## CCCCCCN(CCCCCC)CCCCCC.CCCCOP(=O)(O)OCCCC [[N666H][DBP]]
Ceriodaphnia dubia
  Survival rate of Daphnia: 10%

## CCCCCCCCN(CCCCCCCC)CCCCCCCC.CCCCOP(=O)(O)OCCCC [[N888H][DBP]]
Ceriodaphnia dubia
  Survival rate of Daphnia: 0%
  Total reproductive output (number of neonates) in surviving Daphnia: 0

## CCCCOP(=O)([O-])OCCCC.CCCC[N+](C)(CCCC)CCCC [[N4441] [DBP]]
Ceriodaphnia dubia
  Survival rate of Daphnia: > 70%

## CCCCOP(=O)(O)OCCCC.CN1CCOCC1 [[NMM] [DBP]]
Ceriodaphnia dubia
  Survival rate of Daphnia: 70-90%

## CCCCOP(=O)(O)OCCCC.CN1CCOCC1 [[NMM][DBP]]
Ceriodaphnia dubia
  Survival rate of Daphnia: > 70%

## CCCCOP(=O)(O)OCCCC.CN1CCCCC1 [[NMPPR] [DBP]]
Ceriodaphnia dubia
  Survival rate of Daphnia: 70-90%

## CCCCOP(=O)(O)OCCCC.CN1CCCCC1 [[NMPPR][DBP]]
Ceriodaphnia dubia
  Survival rate of Daphnia: > 70%

## CCCC[P+](CC)(CCCC)CCCC [[P4442][DEP], Tributyl(ethyl)phosphonium diethyl phosphate]
Ceriodaphnia dubia; Ceriodaphnia dubia
  Number of surviving Daphnia: 10
  Survival rate of Daphnia: > 70%
Ceriodaphnia dubia
  Mortality / survival of Daphnia, in words: did not cause any mortality
[1]; OSP-32
  IL's solubility in base oil: >5% wt. %
[1]; PAG (50-HB-170)
  IL's solubility in base oil: >5% wt. %

## Tetraoctylammonium octadecanoate [[N8888][C17H35COO]]
Ceriodaphnia dubia
  Mortality / survival of Daphnia, in words: No Daphnia survived for three days
  Total reproductive output (number of neonates) in surviving Daphnia: 0

## Tetraoctylphosphonium bis(2-ethylhexyl) phosphate [[P8888][DEHP], reference compound]
Ceriodaphnia dubia
  Time of exposure after which all Daphnia were killed: one
  Total reproductive output (number of neonates) in surviving Daphnia: 0

## Trioctylammonium di(2-ethylhexyl)phosphate [[N888H][DEHP], reference compound]
Ceriodaphnia dubia
  Total reproductive output (number of neonates) in surviving Daphnia: 0

## tributyl(methyl)ammonium dibutyl phosphate [[N4441][DBP]]
Ceriodaphnia dubia
  Mortality / survival of Daphnia, in words: did not cause any mortality
